Reference: patent publication US6905834B1, “Bioluminescent bioreporter integrated circuit detection methods” (UT-Battelle, LLC, priority 1997, dated 2005)
Read-outs that look alike come from different tables or passages of the source. Marks after values point to notes of the source that are not given here.

What was measured:
P. putida TVA8 = assay type: cell-based, Pseudomonas putida; conditions: for light response (in words): approximately 50 mg/L (JP-4 approx. 2%), 2 h; for Specific Bioluminescence: approximately 50 mg/L
[1] = Adsorption isotherms on calcium alginate; assay type: physicochemical
Experimental: Tracer concentrations were measured using a Waters ion-chromatography system with a series 510 HPLC pump, IC-PAK anion exchange column, and 431 conductance detector (Waters, Cam-bridge, MA) or monitored continuously using fluorescence.

P. fluorescens HK44 = assay type: cell-based, Pseudomonas fluorescens
From the text: A previously developed PBR system with on-line instrumentation (Webb, 1992; Webb et al., 1991) was used to measure bacterial degradative and bioluminescent activity under conditions mimicking those of the subsurface. The reactor design is detailed in FIG. 21. The PBR was temperature controlled and fitted with metal frits welded to the inlet and outlet to retain and distribute feed to immobilized cultures. An additional inter-cavity insert allowed the installation of filters (e.g., […] inorganic and polymeric) between the packed bed and outlet frit that filtered the effluent for automatic injection into the on-line high-performance liquid chromatography (HPLC) and that produced a uniform resistance to flow that improved the overall distribution to the reactor (Webb, 1992). […] HPLC pumps supplied media to each reactor from pressurized feed reservoirs. All nutrients, including oxygen, entered the reactor dissolved in the liquid phase. Naphthalene and salicylate were detected with an on-line HPLC using a Vydac TP20154 column (Sep/A/Ra/Tions Group, Hesperia, Calif.) with a FL-4 dual-monochromator fluorescent detector (Perkin-Elmer, Norwalk, Conn.). Respective excitation and emission wavelengths for salicylate detection were 290 and 360 nm. The reactor was fitted with an on-line light detector for monitoring bioluminescent activity (Dunbar, 1992) consisting of a glued fiber bundle (Ensign Bickford Optics, Simsbury, Conn.) placed approximately 2.5 cm from the entrance of the reactor. An Oriel Inc. (Stratford, Conn.) 7070 photomultiplier detection system using a Model 77348 photomultiplier tube (radiant sensitivity of […] near 500 nm) were employed.
Mineral salts media (pH 7.2) consisting of MgSO4 7H2O ([…]), NH4NO3 ([…]), trizma™ base ([…]), MgO (1.0×10^−3 g/l), CaCl2 (2.9×10^−4 g/l), FeCl3.6H2O (5.4×10^−4 g/l), ZnSO4.7H2O (1.4×10^−4 g/l), CuSO4 (2.5×10^−5 g/l), […] (6.2×10^−6 g/l), and Na2MoO4.H2O (4.9×10^−5 g/l) were supplied to the reactor with an appropriate carbon source for degradation and bioluminescence studies. Kinetic bacterial studies were phosphate limited and maintained aerobic by con-trolled pressurization of feeds and the reactor.
The HK44 was prepared for immobilization by adding freshly thawed inoculum (frozen at −70° C. until use) to 100 mL of YEPG media which contained glucose (1.0 g/l), polypeptone (2.0 g/l), yeast extract (0.2 g/l), NH4NO3 (0.2 g/l), and tetracycline (14 mg/l). The culture was shaken for 15 hours at 25° C. and then centrifuged at 8000 rpm for 10 minutes. The pellet was then washed with 0.9% NaCl solution three times before immobilization. The concentration of HK44 was enumerated by measuring optical density at 546 nm. The HK44 was immobilized by suspending bacteria in 0.9% NaCl solution and mixing with a low-viscosity alginate (28 g/L) and NaCl (9 g/L) solution in a ratio of 1:2 by volume. Beads were formed by controlled dropwise addition to 0.1 M CaCl2 solution by a syringe needle installed in an air jet controlled by a precision regulator (Porter Instrument Co., Hatfield, Pa.) and a piece of 0.003-in. (i.d.) tubing. Beads diameters were measured using gentle wet sieving. Alginate beads were dissolved in 50 mM sodium hexametaphosphate. […]

P. putida B2 = assay: Immobilized cell reactor (DVR) with alginate-encapsulated P. putida B2: bioluminescence and TCE co-metabolism; assay type: cell-based, Pseudomonas putida
Experimental: In the batch and reactor studies, bioluminescence was measured using a photomultiplier, which converts the light to an electric current. The photomultiplier in the resting cell assays and the reactor system was connected to a computer and bioluminescence as namps current was recorded.
P. putida B2 was encapsulated in alginate beads for the immobilized cell reactor system. Cells were grown in 1 L LB to an OD546 of 1.2 and were centrifuged at 5500×g for 10 min, washed three times in 0.9% NaCl and suspended in 40 ml 0.9% NaCl. The cell suspension was added to 80 ml of an alginic acid solution (28 g L^−1 low viscosity alginate, 0.9% NaCl) (Webb, 1992). The cell-alginate suspension was placed in a 60-ml syringe, forced through a 25-gauge needle, and allowed to drop into a 0.5 M CaCl2 Solution. The alginate was cross-linked by the Ca^2+ ions, thus encapsulating the cells. The cells were subsequently placed in a fresh solution of 0.1 M CaCl2 and allowed to sit for 30 min prior to use.
A differential volume reactor (DVR) was used to simulate a section of an ideal plug flow reactor. Influent to the reactor was dispersed through a porous metal frit to provide a flat velocity profile to the bed. The reactor measured 5.0 cm i.d.×5.0 cm long. A complete description of this reactor can be found in Webb et al. (1991). In this investigation, a system was designed incorporating the DVR as illustrated in FIG. 17. The system was equipped with three Millipore (Bedford, Mass.) stainless steel substrate containers rated to 690 kPa. The feed from the substrate vessels to the reactor inlet was controlled by two Filson (Middleton, Wis.) 301 HPLC pumps. A flow rate of 0.4 ml min^−1 was maintained. The substrate vessels were pressurized with oxygen to provide the system with an electron acceptor. All medium vessels contained trace mineral medium (Lackey et al., 1993) with the addition of 3 mg L^−1 pyruvic acid and a 0.1 M solution of Tris-base (pH 7.0). phosphate buffers were not used since phosphate ions complex with Ca^2+ ions and disrupt with alginate crosslinking. In addition to this medium, two of the vessels contained either TCE or toluene. The inlet concentration of toluene was altered by using square-wave perturbations with 20-h cycles (10 h with toluene, 10 h without toluene) using an HPLC pump controlled by a timer. During feed portions of the cycle, 10 mg L^−1 toluene was introduced into the inlet of the reactor. The inlet TCE concentration was constant at 20 mg L^−1.
Analysis of TCE in the reactor effluent was performed online using a stripping column (12.5 cm length and 0.4 cm inner diameter) packed with 3-mm glass beads to provide adequate surface area for TCE separation. TCE was stripped with helium, the GC carrier gas. The stripping column outlet was attached to a gas chromatograph (GC, Hewlett Packard (Wilmington, Del.) (HP) 5890 Series II) with an electron capture detector by a heated sample line maintained at 75° C. Automatic injections (25 μl) were made by a computerized control process (HP Chem Station software). The GC was equipped with a cross-linked methyl silicone capillary column (length 30 n, i.d 0.2 mm, 0.33-μm film thickness) while the oven was operated isothermally at 60° C. Other operating parameters included an injection temperature of 150° C., detector temperature of 200° C. and a split ratio of 10:1. This system was equipped with a bypass line around the reactor in order to calibrate the stripping column.
Toluene samples were removed at 0.5-ml aliquots from the effluent sampling port (FIG. 17) and injected into 1.5 ml sample vials. Headspace analysis was performed using a Shimadzu (Columbia, Md.) GC-9A gas chromatograph equipped with a 2.44-m, 3.2-mm diameter Poropak N packed column and a flame ionization detector. The isothermal temperature of the oven was 210° C., and both the detector and injector temperatures were 220° C.

[2] = exposure 2 hours, normalized to final OD546, average ± SD of three replicates
[3] = inlet TCE 20 mg/L, toluene being introduced

c1ccccc1 [Benzene, benzene]
light response (in words) (P. putida TVA8): significant light response | Specific Bioluminescence (P. putida TVA8; [2]): 242 ± 9 namp/OD

CCc1ccccc1 [Ethylbenzene, ethylbenzene]
induction of bioluminescence response in pre-grown cells (P. putida TVA8; 50 mg/L, cells previously grown on ethylbenzene, growing cell assays): induce the bioluminescence response without a lag period | Specific Bioluminescence (P. putida TVA8; [2]): 1.0 ± 0.2 namp/OD | Specific Bioluminescence (P. putida TVA8; exposure 4 hours, from a similar but separate study): 47 ± 6^c namp/OD

Oc1ccccc1 [Phenol, phenol]
light response (in words) (P. putida TVA8): significant light response | Specific Bioluminescence (P. putida TVA8; [2]): 70 ± 2 namp/OD

O=C([O-])c1ccccc1O.[Na+] [Sodium salicylate, sodium salicylate]
adsorption on calcium alginate (in words) ([1]; listed as Salicylate): did not measurably absorb | adsorption on calcium alginate (in words) ([1]; listed as salicylate): did not appreciably partition | least-squares reaction rate constant, overall second order model (P. fluorescens HK44; complete data set, figure legends): 2.23×10^−2 dm^3/g mol | Salicylate effluent ± σ (P. fluorescens HK44; experiment 1a, biomass 3.3 × 10^9 cells/mL, feed 2.25 mg/L, τ 14 min): 1.43 ± 2.85 × 10^−2 mg/L | Salicylate effluent ± σ (P. fluorescens HK44; experiment 1b, biomass 3.3 × 10^9 cells/mL, feed 2.25 mg/L, τ 58 min): 0.46 ± 0.84 × 10^−2 mg/L | Salicylate effluent ± σ (P. fluorescens HK44; experiment 1c, biomass 3.3 × 10^9 cells/mL, feed 2.25 mg/L, τ 14 min): 1.65 ± 4.77 × 10^−2 mg/L | Salicylate effluent ± σ (P. fluorescens HK44; experiment 2a, biomass 3.5 × 10^9 cells/mL, feed 2.47 mg/L, τ 24 min): 1.03 ± 2.83 × 10^−2 mg/L | Salicylate effluent ± σ (P. fluorescens HK44; experiment 2b, biomass 3.5 × 10^9 cells/mL, feed 2.47 mg/L, τ 26 min): 0.86 ± 0.93 × 10^−2 mg/L | Salicylate effluent ± σ (P. fluorescens HK44; experiment 2c, biomass 3.5 × 10^9 cells/mL, feed 2.47 mg/L, τ 94 min): 0.20 + 0.28 × 10^−2 mg/L | Salicylate effluent ± σ (P. fluorescens HK44; experiment 3a, biomass […] 10^9 cells/mL, feed 4.45 mg/L, τ 15 min): 4.06 ± 8.85 × 10^−2 mg/L | Salicylate effluent ± σ (P. fluorescens HK44; experiment 3b, biomass […] 10^9 cells/mL, feed 4.45 mg/L, τ 18 min): 3.84 ± 6.99 × 10^−2 mg/L | Salicylate effluent ± σ (P. fluorescens HK44; experiment 3c, biomass […] 10^9 cells/mL, feed 4.45 mg/L, τ 24 min): 3.42 ± 8.55 × 10^−2 mg/L | Salicylate effluent ± σ (P. fluorescens HK44; experiment 3f, biomass […] 10^9 cells/mL, feed 4.45 mg/L, τ 24 min): 3.12 ± 4.09 × 10^−2 mg/L | Salicylate effluent ± σ (P. fluorescens HK44; experiment 4b, biomass […] 10^9 cells/mL, feed 4.45 mg/L, τ 36 min): 2.76 ± 3.95 × 10^−2 mg/L | Salicylate effluent ± σ (P. fluorescens HK44; experiment 4c, biomass […] 10^9 cells/mL, feed 4.45 mg/L, τ 48 min): 2.25 ± 3.47 × 10^−2 mg/L | Salicylate effluent ± σ (P. fluorescens HK44; experiment 4e, biomass […] 10^9 cells/mL, feed 4.45 mg/L, τ 150 min): 0.89 ± 1.54 × 10^−2 mg/L | Salicylate effluent ± σ (P. fluorescens HK44; experiment 4f, biomass […] 10^9 cells/mL, feed 4.45 mg/L, τ 48 min): 2.24 + 3.49 × 10^−2 mg/L | Salicylate effluent ± σ (P. fluorescens HK44; experiment 3d, biomass […] 10^9 cells/mL, feed 4.45 mg/L, τ 36 min): 2.77 + 4.24 × 10^−2 mg/L | Salicylate effluent ± σ (P. fluorescens HK44; experiment 4d, biomass […] 10^9 cells/mL, feed 4.45 mg/L, τ 72 min): 1.75 ± 2.03 × 10^−2 mg/L | salicylate degradation rate constant (first order in biomass, first order in salicylate) (P. fluorescens HK44; fitted to subset 1a-c): 1.88×10^−2 dm^3 g^−1 min^−1 | salicylate degradation rate constant (first order in biomass, first order in salicylate) (P. fluorescens HK44; fitted to subset 2a-c): 2.85×10^−2 dm^3 g^−1 min^−1 | salicylate degradation rate constant (first order in biomass, first order in salicylate) (P. fluorescens HK44; fitted to subset 3a-f): 2.06×10^−2 dm^3 g^−1 min^−1 | salicylate degradation rate constant (first order in biomass, first order in salicylate) (P. fluorescens HK44; fitted to subset 4a-f): 2.28×10^−2 dm^3 g^−1 min^−1 | salicylate degradation rate constant (first order in biomass, first order in salicylate) (P. fluorescens HK44; fitted to the complete set): 2.23×10^−2 dm^3 g^−1 min^−1 | slope of best-fit line, specific light response vs predicted salicylate concentration at the light probe (P. fluorescens HK44; studies 2a-c): 1.4 | slope of best-fit line, specific light response vs predicted salicylate concentration at the light probe (P. fluorescens HK44; studies 3c-e): 2.3 | slope of best-fit line, specific light response vs predicted salicylate concentration at the light probe (P. fluorescens HK44; studies 4c-f): 1.5 | conversion (P. fluorescens HK44; study 1a): 0.64 | conversion (P. fluorescens HK44; study 1c): 0.73 | conversion (P. fluorescens HK44; study 3c): 0.77 | conversion (P. fluorescens HK44; study 3e): 0.41 | conversion (P. fluorescens HK44; study 3f): 0.70 | conversion (P. fluorescens HK44; study 4b): 0.62 | conversion (P. fluorescens HK44; study 4c): 0.50 | conversion (P. fluorescens HK44; study 4f): 0.50 | conversion (P. fluorescens HK44; study 3d): 0.62 | conversion (P. fluorescens HK44; study 4d): 0.39

ClC=C(Cl)Cl [TCE, trichloroethylene]
toxic effects of continuous TCE exposure (in words) (P. putida B2; 20 mg/l TCE): there did not appear to be any toxic effects | induction of the tod operon by TCE (in words) (P. putida B2; absence of toluene, 20 mg/L TCE): did not appear to induce the tod operon | TCE removal (P. putida B2; [3]): 20% | steady-state TCE effluent concentration (P. putida B2; [3]): 16.5 ± 0.2 mg/L

Cc1cccc(C)c1 [m-xylene]
light response (in words) (P. putida TVA8): significant light response | Specific Bioluminescence (P. putida TVA8; [2]): 38 ± 3 namp/OD

Cc1ccccc1C [o-xylene]
light response (in words) (P. putida TVA8): no increase of bioluminescence | Specific Bioluminescence (P. putida TVA8; [2]): 0.5 ± 0.1 namp/OD

Cc1ccc(C)cc1 [p-xylene]
light response (in words) (P. putida TVA8): significant light response | Specific Bioluminescence (P. putida TVA8; [2]): 24 ± 2 namp/OD
